Patent US20250255958A1, “VIRUS-FREE CRISPR CAR NATURAL KILLER CELLS” (Wisconsin Alumni Research Foundation, priority 2024, published 2025)
Where “and” joins values, the source holds several entries; their conditions need not be identical. Equal entries are not always repeated.

What was measured:
[1] = target: T1, DNA-dependent protein kinase (DNA-PK) (Homo sapiens, UniProt P78527); assay type: cell-based
T1 construct: NK cells were nucleofected on day 4 with the RNP complex and dsDNA, and incubated with M3814 at various concentrations; endogenous in cells; host or cells: primary peripheral-blood NK cells
Experimental: Nucleofection: NK-cells were nucleofected on day 4, unless otherwise described for optimization experiments. Post-nucleofection recovery medium (Complete NK MACS® medium (Miltenyi) with 100 IU/mL IL-2 (Peprotech) and 2 ng/mL IL-15 (Peprotech)+/−0.6 uM M3814 (Selleck Chem)) was prepared, with M3814 added at 1.2× the working concentration to account for future dilution. For M3814 related optimization experiments, multiple aliquots of post-recovery medium were prepared with a corresponding concentration of M3814. 150 μL of M3814 recovery medium was plated into individual wells of a 96-well round bottom plate for each replicate and set aside in the incubator. PB-NK cells were harvested and counted using the Countess® II FL Automated Cell Counter (Thermo Fisher Scientific) with 0.4% Trypan Blue viability stain (Thermo Fisher Scientific). 5e5 cells were aliquoted into individual 1.5 mL Eppendorf Tubes® for each nucleofection replicate. While the RNP complexes incubated, the cells were pelleted at 100 g for 10 minutes, and 3 μg (1.5 μL) of dsDNA templates were aliquoted into PCR tubes for each replicate. Following incubation, the RNP complexes were added to the dsDNA templates and were allowed to incubate for 3-5 minutes at room temperature. Cell pellets were resuspended in P3 buffer with 22% supplement (Lonza), and combined with the RNP+dsDNA mixture, for a total volume of […]. Samples were added to the 24 μL reaction cuvettes (Lonza) and were nucleofected using the EH-100 program (Lonza Amaxa™ 4D-Nucleofector®), unless specified otherwise for optimization experiments. Immediately after nucleofection, 100 μL of pre-warmed recovery medium (no M3814) was added to each of the cuvette wells, and samples were rested at 37° C. for 15 minutes. Finally, samples were transferred from the cuvette to the 96-well plate containing pre-warmed recovery medium with M3814. After 24 hours, nucleofected NK cells were combined with irradiated K562-mb15-41BBL (100 Gy) at a 1:2 ratio in complete NK MACS medium with 100 IU/mL IL-2 and 2 ng/mL IL-15.
NK cells were nucleofected on day 4 with the RNP complex and dsDNA, and incubated with M3814 at various concentrations. Nucleofected cells were expanded for one week and assayed by flow cytometry for NKG2A knock-out and transgene expression.

[2] = test system: KLRC1 gene; assay: Indel formation by NGS after Cas9 RNP nucleofection of NK-92 cells; assay type: cell-based, human; conditions: SpCas9 RNP, NGS after two weeks of culture, exon 3
Experimental: On-target editing analysis via Next Generation Sequencing: Genomic DNA was extracted and indel formation was analyzed via next generation sequencing (Illumina) as previously described in the art. Briefly, edited amplicons were amplified and purified using genomic PCR and SPRI cleanup, respectively. A second PCR was performed with indexing primers to attach unique dual identifiers (Illumina®) to the amplicons. After a second SPRI cleanup, samples were combined and run on the Illumina® MiniSeq™ per the manufacturer's instructions and analyzed using the CRISPR RGEN software.
The editing strategy to improve NK potency against solid tumors involves knocking out the NKG2A receptor that can inhibit cytotoxicity within solid tumors (FIG. 1A), while simultaneously conferring specificity of cytotoxicity to a target antigen on the cancer. To knock out the NKG2A receptor, three single-guide RNAs (sgRNAs) were designed against several common coding exons in the KLRC1 gene (FIG. 1B). Ribonucleoproteins (RNPs) were generated upon the complexation of these sgRNAs with SpCas9 to generate double-stranded DNA breaks at these targets within KLRC1. NK-92 cells, a human cell line derived from non-hodgkin lymphoma, were nucleofected with RNPs containing one of these sgRNAs, and assessed for insertions or deletions (indels) around the targeted site after two weeks of cell culture. […]

[3] = test system: human genome; assay: Genome-wide off-target analysis by CHANGE-seq; assay type: biochemical
Experimental: Off-target analysis via genome wide CHANGE-seq: The Gentra® Puregene® kit (Qiagen, Germantown, MD) was used to extract genomic DNA from unedited primary NK cells per the manufacturer's instructions. Genomic analysis was performed by CHANGE-Seq as described previously in the art. In short, genomic DNA underwent tagmentation with a custom Tn5-transposome, and was gap repaired with HiFi HotStart Uracil+ Ready Mix (Kapa Biosystems, Wilmington, MA). USER enzyme (NEB, Ipswich, MA) and T4 polynucleotide was then used to treat the gap-repaired DNA. DNA circularization was performed using T4 DNA ligase (NEB, Ipswich, MA), followed by treatment with a mixture of exonucleases to remove residual linear DNA. In vitro cleavage reactions were performed on the circularized DNA using SpCas9 protein (NEB, Ipswich, MA) and KLRC1 sgRNA. Cleaved products were incubated with proteinase K (NEB, Ipswich, MA), A-tailed, ligated with a hairpin adapter (NEB, Ipswich, MA), and treated with USER enzyme (NEB, Ipswich, MA). Products were amplified by PCR with the Kapa HiFi polymerase (Kapa Biosystems, Wilmington, MA), and libraries were quantified by qPCR (Kapa Biosystems, Wilmington, MA). Libraries were sequenced with 150 bp paired-end reads on the Illumina NextSeq2000 instrument. CHANGE-seq data analyses were performed as described previously.

[4] = test system: KLRC1; conditions: primary T cells, Bexte et al.; cited from earlier work
[5] = test system: NKG2A; conditions: Huang et al.; cited from earlier work

| Compound | cell expansion after nucleofection [1] | improvement of HDR outcomes [1] | percent of NKG2A− cells [1] | percentage of transgene expression [1] | indel formation [2] [%] | sites having off-target activity near a transcription start site (TSS) ([3]; CHANGE-seq) | sites having off-target nuclease activity within exons ([3]; CHANGE-seq) | CHANGE-seq specificity ratio ([3]; on-target reads divided by sum of total reads) | indel frequency [4] | NKG2A knock-out [5] | indel frequencies [5] [%] |
| --- | --- | --- | --- | --- | --- | --- | --- | --- | --- | --- | --- |
| COc1ccc([C@@H](O)c2cc(-c3ncnc4cc(N5CCOCC5)ccc34)c(F)cc2Cl)nn1 [M3814] | did not affect cell expansion | two-fold | around 75% | 11.9% and 12.8% |  |  |  |  |  |  |  |
| GGTCTGAGTAGATTACTCCT(TGG) (guide GGUCUGAGUAGAUUACUCCU; listed as RNA, chemistry not given here) [gRNA1] |  |  |  |  | 98 | 8 | 10 | 0.038 | 58-80% | less than 25% | > 80 |
